In patent US11752139B2, “Therapeutic combinations of orally administered irinotecan and a p-gp inhibitor for the treatment of cancer” (priority 2018, dated 2023):
Where two headings read alike, the source gives them in different places.

Tests used:
[1] = Study 1: maximum tolerated dose of orally administered irinotecan with Compound A; format: in vivo, human; settings: dosed five days of week one during a three-week cycle
Description: Orally administered irinotecan was determined to have a maximum tolerated dose (MTD) of 20 mg/m^2 per day when dosed five days of week one during a three-week cycle.

[2] = Study 2: maximum tolerated dose of orally administered irinotecan with Compound A; format: in vivo, human; settings: dosed five days of week one and week two during a three-week cycle
Description: Orally administered irinotecan was determined to have a MTD of 10 mg/m^2 per day when dosed five days of week one and week two during a three-week cycle.

advanced malignancies = assay: Phase 1 dose escalation study of oral irinotecan with 15 mg HM30181A: response; format: in vivo, human; settings: subjects with advanced malignancies; 15 mg HM30181A + oral irinotecan
Description: (§1) A phase 1 dose escalation study was performed to determine the MTD and DLT of orally administered irinotecan in combination with 15 mg (on day 1 of a 21-day cycle) of HM30181A. The study was performed on cohorts of 3-6 subjects with advanced malignancies. Subjects had Hb (hemoglobin count) 9 gm/dL, ANC (absolute neutrophil count) 1.5×10^9/L, and platelets 100×10^9/L, as well as adequate hepatic and renal function, and ECOG (Eastern Cooperative Oncology Group Performance Status) 0-1, and were not homozygous for UGT1A1*28.

[3] = human, in vivo
[4] = human, in vivo; remark: listed apart in the source
clinical [5] = settings: human, in vivo
clinical [6] = settings: human, in vivo; remark: listed apart in the source
clinical [7] = settings: human, in vivo, po, N = 3; for AUC(0-t): AUC24 h
Description: as §1

[8] = Simple Emax model of exposure (AUCinf, Cmax) versus dose
[9] = Study 2: pharmacokinetics of oral irinotecan and M1, 5-20 mg/m^2 per day for 10 days during a 21 day cycle; settings: for AUC / Cmax: human, in vivo, oral, mean
[10] = Study 1: pharmacokinetics of oral irinotecan and M1, 5-30 mg/m^2 per day for five days during a 21 day cycle
[11] = 15 mg HM30181A + 20-320 mg/m^2 oral irinotecan, day 1 of 21-day cycle, 30 patients
[12] = 15 mg HM30181A + 20-320 mg/m^2 oral irinotecan, 30 patients
[13] = 320 mg/m^2 dose level, with 15 mg HM30181A
[14] = dose 240 mg/m^2 oral irinotecan + 15 mg HM30181A
[15] = dose 280 mg/m^2 oral irinotecan + 15 mg HM30181A
[16] = dose 320 mg/m^2 oral irinotecan + 15 mg HM30181A

For `CCc1c2c(nc3ccc(OC(=O)N4CCC(N5CCCCC5)CC4)cc13)-c1cc3c(c(=O)n1C2)COC(=O)[C@]3(O)CC` [oral irinotecan, (4S)-4,11-Diethyl-4-hydroxy-3,14-dioxo-3,4,12,14-tetrahydro-1H-pyrano[3′,4′:6,7]indolizino[1,2-b]quinolin-9-yl 1,4′-bipiperidine-1′-carboxylate, reference compound], the “maximum tolerated dose (MTD)” value [1] was 20 mg/m^2 per day, the MTD [2] was 10 mg/m^2 per day and the “response of stable disease” value (advanced malignancies) was 9 out of 21. For the same compound, the AUC24 ([3]; 5 mg/m2) was 64.59 ng·h/mL, the AUC24 ([3]; 10 mg/m2) was 209.12 ng·h/mL and the AUC24 ([3]; 15 mg/m2) was 379.56 ng·h/mL. The AUC24 ([3]; 25 mg/m2) was 481.39 ng·h/mL, the AUC24 ([3]; 30 mg/m2) was 454.54 ng·h/mL and the “Cmax compared with IV dosed irinotecan” value [4] was “below the range for 125 mg/m^2 of IV dosed irinotecan”. For the same compound, the “dose at which Cmax began to plateau” value [4] was 200 mg/m^2, the Tmax ([4]; po, 280 mg/m2) was 1 h and the Acute cholinergic diarrhea (15 mg HM30181A + 20-320 mg/m^2 oral irinotecan) was “not observed”. For the same compound, the “Treatment-related Grade 3-4 AEs, number of subjects” value [11] was 12 subjects, the “Treatment-related Grade 3-4 AEs, share of subjects” value [11] was 40% and the “SAEs nausea or vomiting, number of subjects” value [12] was 4 subjects. For the same compound, the “Treatment-related SAEs, number of patients” value [12] was 6 patients, the “vomiting (most common AEs), share of subjects” value [12] was 20% and the “DLTs, number of subjects” value [13] was 2 subjects. For the same compound, the “kind of DLTs” value [13] was “neutropenia and C. Difficile diarrhea”, the AUC (clinical [5]; 5 mg/m2, AUC24) was 50.9 ng·h/mL and the Cmax (clinical [5]; 5 mg/m2, Cmax) was 6.52 ng/mL. The AUC (clinical [5]; 10 mg/m2, AUC24) was 110 ng·h/mL, the Cmax (clinical [5]; 10 mg/m2, Cmax) was 14 ng/mL and the AUC (clinical [5]; 15 mg/m2, AUC24) was 194 ng·h/mL. The Cmax (clinical [5]; 15 mg/m2, Cmax) was 20.6 ng/mL, the AUC (clinical [5]; 20 mg/m2, AUC24) was 277 ng·h/mL and the Cmax (clinical [5]; 20 mg/m2, Cmax) was 31.9 ng/mL. For the same compound, the AUC (clinical [5]; 25 mg/m2, AUC24) was 703 ng·h/mL, the Cmax (clinical [5]; 25 mg/m2, Cmax) was 63.6 ng/mL and the AUC (clinical [5]; 30 mg/m2, AUC24) was 736 ng·h/mL. It also gave a Cmax (clinical [5]; 30 mg/m2, Cmax) of 57.3 ng/mL, a Cmax (clinical [6]; 240 mg/m2, Observed Mean (Cmax)) of 798 ng/mL and an AUC0-inf (clinical [6]; 240 mg/m2, Observed Mean AUCinf) of 8150 ng·h/mL. The Cmax (clinical [6]; 280 mg/m2, Observed Mean (Cmax)) was 763 ng/mL, the AUC0-inf (clinical [6]; 280 mg/m2, Observed Mean AUCinf) was 6980 ng·h/mL and the Cmax (clinical [6]; 320 mg/m2, Observed Mean (Cmax)) was 1060 ng/mL. For the same compound, the AUC0-inf (clinical [6]; 320 mg/m2, Observed Mean AUCinf) was 14200 ng·h/mL, the Cmax (clinical [6]; po, 240 mg/m2, Cmax) was 668 ng/mL and the Tmax (clinical [6]; po, 240 mg/m2, Tmax) was 3 h. The AUC (clinical [6]; po, 280 mg/m2, AUC24) was 5020 ng·h/mL, the AUC0-inf (clinical [6]; po, 280 mg/m2, AUCinf) was 6010 ng·h/mL and the AUC(0-t) (clinical [6]; po, 280 mg/m2, AUClast) was 5890 ng·h/mL. It also gave a Cmax (clinical [6]; po, 280 mg/m2, Cmax) of 736 ng/mL, a Tmax (clinical [6]; po, 320 mg/m2, Tmax) of 3 h and an AUC(0-t) (clinical [7]; [14]) of 6960 ng·h/mL. It also gave an AUC(0-t) (clinical [7]; [15]) of 6040 ng·h/mL, an AUC(0-t) (clinical [7]; [16]) of 11300 ng·h/mL and a Cmax (clinical [7]; [14]) of 798 ng/mL. It also gave a Cmax (clinical [7]; [15]) of 763 ng/mL, a Cmax (clinical [7]; [16]) of 1060 ng/mL and a Tmax (clinical [7]; [14]) of 3 h. For the same compound, the Tmax (clinical [7]; [15]) was 2 h, the Tmax (clinical [7]; [16]) was 3 h and the “Predicted AUCinf” value ([8]; dose 200 mg/m^2) was 6992. For the same compound, the “Predicted Cmax” value ([8]; dose 200 mg/m^2) was 549, the “Predicted AUCinf” value ([8]; dose 240 mg/m^2) was 7679 and the “Predicted Cmax” value ([8]; dose 240 mg/m^2) was 600. The “Predicted AUCinf” value ([8]; dose 280 mg/m^2) was 8253, the “Predicted Cmax” value ([8]; dose 280 mg/m^2) was 643 and the “Predicted AUCinf” value ([8]; dose 320 mg/m^2) was 10189. For the same compound, the “Predicted Cmax” value ([8]; dose 320 mg/m^2) was 752, the pharmacokinetics versus dose ([9]; 5-20 mg/m^2 per day for 10 days during a 21 day cycle) was “increased proportionally with dose” and the AUC ([9]; 5 mg/m2, AUC24, Day 1, dose group 5 mg/m^2) was 72.1 ng·h/mL. For the same compound, the AUC ([9]; 5 mg/m2, AUC24, Day 12, dose group 5 mg/m^2) was 95.1 ng·h/mL, the Cmax ([9]; 5 mg/m2, Cmax, Day 1, dose group 5 mg/m^2) was 9.65 ng/mL and the AUC ([9]; 10 mg/m2, AUC24, Day 1, dose group 10 mg/m^2) was 123 ng·h/mL. For the same compound, the AUC ([9]; 10 mg/m2, AUC24, Day 12, dose group 10 mg/m^2) was 186 ng·h/mL, the Cmax ([9]; 10 mg/m2, Cmax, Day 1, dose group 10 mg/m^2) was 15.5 ng/mL and the Cmax ([9]; 10 mg/m2, Cmax, Day 12, dose group 10 mg/m^2) was 17.9 ng/mL. It also gave an AUC ([9]; 15 mg/m2, AUC24, Day 1, dose group 15 mg/m^2) of 284 ng·h/mL, an AUC ([9]; 15 mg/m2, AUC24, Day 12, dose group 15 mg/m^2) of 281 ng·h/mL and a Cmax ([9]; 15 mg/m2, Cmax, Day 1, dose group 15 mg/m^2) of 26.9 ng/mL. It also gave a Cmax ([9]; 15 mg/m2, Cmax, Day 12, dose group 15 mg/m^2) of 38.1 ng/mL, an AUC ([9]; 20 mg/m2, AUC24, Day 1, dose group 20 mg/m^2) of 271 ng·h/mL and an AUC ([9]; 20 mg/m2, AUC24, Day 12, dose group 20 mg/m^2) of 442 ng·h/mL. For the same compound, the Cmax ([9]; 20 mg/m2, Cmax, Day 1, dose group 20 mg/m^2) was 28.8 ng/mL, the Cmax ([9]; 20 mg/m2, Cmax, Day 12, dose group 20 mg/m^2) was 64.6 ng/mL and the pharmacokinetics versus dose ([10]; 5-30 mg/m^2 per day for five days during a 21 day cycle) was “increased proportionally with dose”. For the same compound, the AUC ([10]; human, in vivo, 20 mg/m2) was 412 ng·h/mL.
